Results as given in ChEMBL document CHEMBL5032532, “Synthesis of xanthosine 2-phosphate diesters via phosphitylation of the carbonyl group” (Bioorg Med Chem Lett, 2021).

Experiments:
[1] = Chemical stability in human serum assessed as compound hydrolysis at 20 mM measured upto 8 hrs by RP-HPLC analysis; format: physicochemical, cell-free; conditions: 20000 µM
[2] = Chemical stability in PBS buffer at pH 6.8 assessed as compound hydrolysis at 20 mM measured after 7 hrs by RP-HPLC analysis; format: physicochemical; conditions: read-out: Drug degradation
[3] = Chemical stability in PBS buffer at pH 11.1 assessed as compound hydrolysis at 20 mM measured upto 8 hrs by RP-HPLC analysis; format: physicochemical; conditions: pH 11.1, 8 h, 20000 µM
[4] = Chemical stability in PBS buffer at pH 4.8 assessed as compound hydrolysis at 20 mM measured after 7 hrs by RP-HPLC analysis; format: physicochemical; conditions: read-out: Drug degradation

Stability [1]: Unstable | degraded at 7 h, 20000 µM [2]: 40% | Stability [3]: Stable | degraded at 7 h, 20000 µM [4]: 50%
Structure (SMILES): CCN(CC)CC.O=c1[nH]c(OP(=O)(O)Oc2ccccc2)nc2c1ncn2[C@@H]1O[C@H](CO)[C@@H](O)[C@H]1O
